Data published in US11149028B2, “Methods for treating melanoma using small molecules” (NOVA SOUTHEASTERN UNIVERSITY, priority 2016, dated 2021).
Entries after “also recorded” stand apart in the source; their conditions may differ. Peptide text beside a SMILES is read from it. * marks the point of attachment. Cbz = O=C(OCc1ccccc1)*; CH2F = FC*

How the values were obtained:
[1] = tested on: cleaved lamin A/C in WM266-4 cells; experiment: Western blotting for lamin A/C cleavage; format: cell-based, human
Method: (§1) 1×10^6 of WM266-4 or M14 cells were seeded in 3 mL of E-MEM or RPMI-1640 medium supplemented with 10% FBS and 1% penicillin/streptomycin in 6 cm plates. […] After washing with TBST, the membranes were treated with chemilumiscent horseradish peroxidase detection reagent (Thermo Scientific, Cat #32209) and exposed to autoradiography film (Denville Scientific, Inc., Metuchen, N.J., USA, cat #E3018). ImageJ software (NIH, Bethesda, Md.) was used to quantify the intensity of proteins bands. The protein bands were normalized against loading controls.

[2] = tested on: WM266-4 cells; experiment: CellTiter-Glo cell viability assay, WM266-4 (including rescue assays); format: cell-based, human
Method: Cells were plated in 384-well plates in 8 μL of media. Test compounds and dabrafenib (pharmacological assay control) were prepared as 10-point, 1:3 serial dilutions starting at 300 μM, then added to the cells (4 μL per well) using the Biomek Plates were incubated for 72 h at 37° C., 5% CO2 and 95% relative humidity. After incubation, 4 μL of CellTiter-Glo® (Promega cat #: G7570) were added to each well, and incubated for 15 min at room temperature. Luminescence was recorded using a Biotek Synergy H4 multimode microplate reader. Viability was expressed as a percentage relative to wells containing media only (0%) and wells containing cells treated with DMSO only (100%). Three parameters were calculated on a per-plate basis: (a) the signal-to-background ratio (SB); (b) the coefficient for variation [CV; CV=(standard deviation/mean)×100)] for all compound test wells; and (c) the Z′-factor (18). The IC50 value of the pharmacological control (dabrafenib, LC Laboratories #G-4408) was also calculated to ascertain the assay robustness. In case of viability rescue assays, cells were pre-treated with caspase, calpain, and autophagy inhibitors for 1-3 h before addition of test compounds. Time course viability assay was done with luminescence measurements performed at 4, 24, 48, and 72 h.

[3] = tested on: calpain in WM266-4 cells; experiment: Calpain activity assay (Calpain-Glo); format: cell-based, human; conditions: 25 μM inhibitor, 100 μM 2155-14
Method: The Calpain-Glo Protease Assay (Promega cat #) was used to measure the calpain enzyme activity in live cells, according to the manufacturer's instructions. 1,250 of WM-266-4 cells were plated in 384-well white TC-treated plates in 5 μL of serum-free EMEM media. The cells were incubated overnight at 37° C., 5% CO2 and 95% relative humidity and 5 μL of test compounds 2155-14, (100 μM), calpain inhibitor III and PD151746 (25 μM) were added alone or in combination and incubated at 37° C., 5% CO2, and 95% relative humidity for 0.5, 4, and 24 h. After incubation, 10 μL, of a freshly prepared dilution of the Calpain-Glo Reagent stock solution (consisting of Suc-LLVY-Glo™ substrate, Calpain-Glo™ buffer, Luciferin Detection Reagent, and CaCl2) was added to cells at above mentioned times and luminescence was recorded with a Neo 2 microplate reader (Biotek Inc). All experiments were performed in triplicate and the values provided are the calculated average of at least three independent experiments.

[4] = tested on: WM266-4 cells; experiment: Annexin V flow cytometry assay; format: cell-based, human; conditions: 4 h
Source text: After 4, 24 and 48 hrs of compound exposure the adherent and floating cells were combined and stained using the TACS Annexin V-FITC Apoptosis detection kit (Trevigen Inc, Gaithersburg, Md., USA) using manufacturer's protocol. Viable, necrotic, early and late apoptotic cells were counted using Accuri flow cytometer as per the manufacturer instructions.

[5] = tested on: LC3-II and beclin-1 in WM266-4 cells; experiment: Western blotting for LC3 and beclin-1, WM266-4; format: cell-based, human
Method: as §1, with “controls (β-actin) and expressed as a fold of an untreated control.” for “controls.”

[6] = tested on: M14 cells; conditions: time course 4-72 h; time stated at the place
Method: ApoTox-Glo™ Triplex Assay which allows one to simultaneously assess the effect of small molecules on cell viability, toxicity, caspase activity, and cell cycle all in the same well (Niles, A. L.; Moravec, R. A.; Riss, T. L. In vitro viability and cytotoxicity testing and same-well multi-parametric combinations for high throughput screening. Curr Chem Genomics 2009, 3, 33-41) was utilized. First, a mixture of 2 fluorogenic substrates was added to cells. GF-AFC substrate is cell-permeant and non-lytic to cells, allowing the measurement of active protease inside live cells. The second substrate (bis-AAF-R110 Substrate) is not cell-permeable and is only cleaved when proteases are released from cells due to the loss of membrane integrity typical of cell death. This step generates an inversely correlated measurement of cell viability and toxicity.
The second addition is luminogenic DEVD-peptide substrate for caspase-3/7 and Ultra-Glo™ Recombinant Thermostable Luciferase. Caspase-3/7 cleavage of the substrate generates a luminescent signal which correlates with caspase-3/7 activation as a key indicator of apoptosis. As markers for cytotoxicity and apoptosis are transient, the assay was conducted in time course format with time points at 4, 24, 48, and 72 h.
M14 #5 cells were plated in 384-well format at a density of 1,250 cells in 5 μL of serum-free DMEM media and incubated at 37° C. in 5% CO2 for 4 h. Control and test compounds were serially diluted in a ratio of 1:3 and added to wells in 4 μL. […] Plates were incubated at 37° C. in 5% CO2 for 4, 24, 48, and 72 h. At the end of each time point Viability/Cytotoxicity™ Reagent was prepared containing 400 μM glycylphenylalanyl-aminofluorocoumarin (GF-AFC) substrate (cleavable by live cell proteases) and 400 μM bis-alanylalanyl-phenylalanyl-rhodamine 110 (bis-AAF-R110) substrate (cleavable by dead cell proteases). 4 μL of the Viability/Cytotoxicity™ Reagent was used per well. The plate was incubated for 30 min at 37° C. Fluorescence was read at λEx=400 nm and λEm=505 nm for GF-AFC and λEx=485 nm and λEm=520 nm for bis-AAF-R110 on the BioTek Synergy™ 4 Multi-Mode Microplate Reader. Caspase-Glo® 3/7 Reagent was then added in 12 μL volume. The plate was incubated for 30 min at room temperature and luminescence was measured on the BioTek Synergy™ 4 Multi-Mode Microplate Reader.

[7] = 10 μM inhibitor 3 h, then 100 μM 2155-14, 24 h
[8] = 50 μM inhibitor, then 100 μM 2155-14
[9] = cells treated with 100 μM 2155-14, inhibitor 10 μM

Compound: COC(=O)C[C@H](NC(=O)[C@H](C)NC(=O)[C@@H](NC(=O)OCc1ccccc1)C(C)C)C(=O)CF [pan-caspase inhibitor, Z-VAD-FMK, reference compound] (Cbz-Val-Ala-Asp(OMe)-CH2F)
- lamin A/C cleavage after caspase inhibitor pre-treatment [1, 7]: Only partial inhibition of lamin A/C cleavage
- lamin A/C cleavage after caspase inhibitor pre-treatment [1, 8]: almost completely abrogated

Compound: CC[C@H](C)[C@H](NC(=O)OCc1ccccc1)C(=O)N[C@@H](CCC(=O)OC)C(=O)N[C@H](C(=O)N[C@@H](CC(=O)OC)C(=O)CF)[C@@H](C)O [caspase 8 inhibitor, Z-IETD-FMK, reference compound] (Cbz-IE(OMe)TD(OMe)-CH2F)
- lamin A/C cleavage after caspase inhibitor pre-treatment [1, 7]: Only partial inhibition of lamin A/C cleavage
- lamin A/C cleavage after caspase inhibitor pre-treatment [1, 8]: almost completely abrogated

Compound: MDL-28170 [reference compound]
- viability, combination with 2155-14 ([2]; 25 μM inhibitor, 100 μM 2155-14): even more pronounced negative effect on viability of cells than either compound alone
- calpain activity induced by 2155-14 after calpain inhibitor pre-treatment [3]: shut down calpain activity induced by 2155-14 at 30 min and 4 h but not at 24 h

Compound: O=C(O)/C(S)=C/c1c[nH]c2ccc(F)cc12 [PD151746, reference compound]
- cell viability restored in presence of 2155-14 ([2]; 24 h, 25 μM inhibitor, 100 μM 2155-14): ~75%
- cell viability restored in presence of 2155-14 ([2]; 48 h, 25 μM inhibitor, 100 μM 2155-14): ~50%
- cell viability in presence of 2155-14 ([2]; 72 h, 25 μM inhibitor, 100 μM 2155-14): all cells were dead
- calpain activity induced by 2155-14 after calpain inhibitor pre-treatment [3]: shut down calpain activity induced by 2155-14 at 30 min and 4 h but not at 24 h

Compound: CN[C@@H]1C[C@H]2O[C@@](C)([C@@H]1OC)n1c3ccccc3c3c4c(c5c6ccccc6n2c5c31)C(=O)NC4 [staurosporine, reference compound]
- apoptosis detected [4]: apoptosis was detected only in staurosporine-treated cells

Compound: O=C(CCCC[C@@H]1SC[C@@H]2NC(=O)N[C@@H]21)NCCCC[C@@H](CN1CCC[C@H]1CN1C(=O)C(=O)NC[C@@H]1Cc1ccccc1)N1C[C@H](Cc2ccc(O)cc2)N(CCc2ccccc2)C(=O)C1=O [Compound 2529-5, N—((S)-6-((S)-2-(((S)-6-benzyl-2,3-dioxopiperazin-1-yl)methyl)pyrrolidin-1-yl)-5-((S)-5-(4-hydroxybenzyl)-2,3-dioxo-4-phenethylpiperazin-1-yl)hexyl)-5-((3aS,4S,6aR)-2-oxohexahydro-1H-thieno[3,4-d]imidazol-4-yl)pentanamide]
- IC50 ([2]; Homo sapiens, WM 266-4, 72 h, 72 h): > 100 µM
- cytotoxicity at 100 µM ([2]; Homo sapiens, WM 266-4, 100 μM, 72 h, read-out: maximal inhibition of cell viability): 37%
- LC3-II level ([5]; 100 μM, 24 h): did not significantly increase
- cleaved lamin A/C level ([1]; 100 μM, 24 h): did not significantly increase; also recorded: had no effect on cleavage of lamin A/C

Compound: CCN(CCO)CCCC(C)Nc1ccnc2cc(Cl)ccc12 (centres unmarked) [hydroxychloroquine, reference compound]
- LC3-II level after autophagy inhibitor pretreatment [5, 9]: increased levels
- cleaved lamin A/C level after autophagy inhibitor pretreatment [1, 9]: increased levels

Compound: C[C@H](CCC(=O)O)C[C@H](C)C[C@H](C)C(=O)/C=C(\O)[C@H](C)C[C@H](C)C/C=C/[C@@H](C)[C@@H](O)[C@@H](C)[C@@H](O)C[C@@H]1CC[C@@](C)([C@H]2CC[C@@](C)([C@@H](C)O)O2)O1 [ionomycin, reference compound]
- ApoTox caspase-3/7 activity [6]: did not induce a spike in caspase activity at any of the time points
- ApoTox cytotoxicity [6]: strong cytotoxicity response
- ApoTox viability (live cell protease) [6]: dose dependent loss of viability as early as 4 h

Compound: CC[C@H](C)[C@H](NC(=O)[C@H](CCC(=O)OC)NC(=O)[C@@H](NC(=O)OCc1ccccc1)C(C)C)C(=O)N[C@@H](CC(=O)OC)C(=O)CF [caspase 6 inhibitor, Z-VEID-FMK, reference compound] (Cbz-VE(OMe)ID(OMe)-CH2F)
- lamin A/C cleavage after caspase inhibitor pre-treatment [1, 7]: Only partial inhibition of lamin A/C cleavage
- lamin A/C cleavage after caspase inhibitor pre-treatment [1, 8]: almost completely abrogated

Compound: COC(=O)C[C@H](NC(=O)[C@H](C)NC(=O)[C@@H](NC(=O)[C@H](CC(=O)OC)NC(=O)[C@@H](NC(=O)OCc1ccccc1)C(C)C)C(C)C)C(=O)CF [caspase 2 inhibitor, Z-VDVAD-FMK, reference compound] (Cbz-VD(OMe)VAD(OMe)-CH2F)
- lamin A/C cleavage after caspase inhibitor pre-treatment [1, 8]: to the lesser extent

Compound: CN(C)c1cccc2c(S(=O)(=O)NCCCC[C@@H](CN3CCC[C@H]3CN3C(=O)C(=O)NC[C@@H]3Cc3ccccc3)N3C[C@H](Cc4ccc(O)cc4)N(CCc4ccccc4)C(=O)C3=O)cccc12 [Compound 2476-66.2, N—((S)-6-((S)-2-(((S)-6-benzyl-2,3-dioxopiperazin-1-yl)methyl)pyrrolidin-1-yl)-5-((S)-5-(4-hydroxybenzyl)-2,3-dioxo-4-phenethylpiperazin-1-yl)hexyl)-5-(dimethylamino)naphthalene-1-sulfonamide]
- LC3-II level ([5]; 2.5 μM, 24 hr): no cleavage of lamin A/C or increase of levels of LC3-II was detected
- LC3 western blot ([5]; 5 μM, 24 hr): neither of LC3 isoforms nor actin were detected
- lamin A/C cleavage ([1]; 2.5 μM, 24 hr): no cleavage of lamin A/C
- lamin A/C western blot ([1]; 5 μM, 24 hr): striking increase of cleaved lamin A/C

Compound: CC(C)(C)c1ccc(C(O)CCCN2CCC(C(O)(c3ccccc3)c3ccccc3)CC2)cc1 (centres unmarked) [terfenadine, reference compound]
- ApoTox caspase-3/7 activity [6]: early caspase activity spike (4-24 h)
- ApoTox viability (live cell protease) [6]: early loss of cell viability
